Measurements from patent publication US20190134005A1 (BioMarin Pharmaceutical Inc., priority 2016, published 2019).
Read-outs that look alike come from different tables or passages of the source.

Biological target: T1, human CGT (Homo sapiens, UniProt Q16880)
T1 sequence (Q16880 21-541): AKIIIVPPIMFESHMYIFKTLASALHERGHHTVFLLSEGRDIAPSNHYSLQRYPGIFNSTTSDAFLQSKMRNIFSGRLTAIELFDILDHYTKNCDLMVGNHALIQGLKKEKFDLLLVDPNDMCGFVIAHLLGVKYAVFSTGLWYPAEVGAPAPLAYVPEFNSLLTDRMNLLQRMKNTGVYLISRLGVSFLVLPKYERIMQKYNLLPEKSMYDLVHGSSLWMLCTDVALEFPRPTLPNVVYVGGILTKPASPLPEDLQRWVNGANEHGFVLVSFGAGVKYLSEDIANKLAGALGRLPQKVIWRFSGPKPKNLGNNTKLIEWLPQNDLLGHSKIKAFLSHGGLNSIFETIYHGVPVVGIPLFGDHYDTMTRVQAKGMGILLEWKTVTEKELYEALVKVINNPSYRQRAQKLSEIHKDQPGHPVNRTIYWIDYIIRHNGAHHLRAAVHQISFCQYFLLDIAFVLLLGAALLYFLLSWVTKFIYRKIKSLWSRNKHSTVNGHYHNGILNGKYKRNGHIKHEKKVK
Experiment: Assay 1: CGT Enzymatic Assay (RapidFire/MS/MS, 0.01% Tween 80)
Type: biochemical
Conditions: Table 1, Compounds of Formula (I) and Formula (II), CGT enzymatic assay, read-out: IC50

[1] = C6-NBD-dihydro-galactosylceramide readout

Row | IC50 [µM] | IC50 [1] [µM] | SMILES
1 | 1 to 10 | – | CC(C)C1(c2cccc(C#N)c2)C(O)N(c2ccc(Br)cc2)C(=O)N1c1ccc(Br)cc1 (stereo not shown) [Example 232, 3-(1,3-bis(4-bromophenyl)-5-hydroxy-4-isopropyl-2-oxoimidazolidin-4-yl)benzonitrile]
2 | < 1 | – | C[C@H]1N(c2ccc(Br)cc2)C(=O)N(c2ccc(Br)cc2)C1(O)c1cccc(Cl)c1 (stereo partly drawn) [Compound 73-2, (5R)-1,3-bis(4-bromophenyl)-4-(3-chlorophenyl)-4-hydroxy-5-methylimidazolidin-2-one]
3 | 50 to 100 | – | O=C1N(c2cccc(Br)c2)C(=O)C(O)(c2ccccc2)N1c1cccc(Br)c1 (stereo not shown) [Example 181, 1,3-bis(3-bromophenyl)-5-hydroxy-5-phenylimidazolidine-2,4-dione]
4 | 1 to 10 | – | N#Cc1cc(Cl)cc(C2(O)CN(c3ccc(Br)cc3)C(=O)N2c2ccc(Br)cc2)c1 (stereo not shown) [Compound 113, 3-(1,3-bis(4-bromophenyl)-4-hydroxy-2-oxoimidazolidin-4-yl)-5-chlorobenzonitrile]
5 | < 1 | – | CC1N(c2ccc(Br)cc2)C(=O)N(c2ccc(Br)cc2)C1(O)c1ccccc1 (stereo not shown) [Example 13]
6 | < 1 | – | C[C@@H]1N(c2ccc(Br)cc2)C(=O)N(c2ccc(Br)cc2)C1(O)c1cccc(Cl)c1 (stereo partly drawn) [Compound 73-1, (5S)-1,3-bis(4-bromophenyl)-4-(3-chlorophenyl)-4-hydroxy-5-methylimidazolidin-2-one]
7 | < 1 | – | CC1N(c2ccc(Cl)cc2)C(=O)N(c2ccc(Cl)cc2)C1(O)c1cccc(C#N)c1 (stereo not shown) [Compound 99, 3-(1,3-bis(4-chlorophenyl)-4-hydroxy-5-methyl-2-oxoimidazolidin-4-yl)benzonitrile]
8 | < 1 | – | CC1(C)N(c2ccc(C(F)(F)F)cc2)C(=O)N(c2ccc(C(F)(F)F)cc2)C1(O)c1cccc(C#N)c1 (stereo not shown) [Example 192, 3-(4-hydroxy-5,5-dimethyl-2-oxo-1,3-bis(4-(trifluoromethyl)phenyl)-imidazolidin-4-yl)benzonitrile]
9 | – | < 1 | Cc1ccc(N2C(=O)N(c3ccc(Cl)cc3)C(O)(c3cccc(C#N)c3)C23COC3)cc1 (stereo not shown) [Compound 283, 3-(7-(4-chlorophenyl)-8-hydroxy-6-oxo-5-(p-tolyl)-2-oxa-5,7-diazaspiro[3.4]octan-8-yl)benzonitrile]
10 | < 1 | – | CCC[C@H]1N(c2ccc(Cl)cc2)C(=O)N(c2ccc(Cl)cc2)C1(O)c1cccc(C)c1 (stereo partly drawn) [Compound 90-2, (5R)-1,3-bis(4-chlorophenyl)-4-hydroxy-5-propyl-4-(m-tolyl)imidazolidin-2-one]
11 | < 1 | – | O=C1N(c2ccc(Cl)cc2)[C@@]2(CCOC2)[C@@](O)(c2cccc(OC(F)(F)F)c2)N1c1ccc(Cl)cc1 [Compound 234-4, (4S,5R)-1,3-bis(4-chlorophenyl)-4-hydroxy-4-(3-(trifluoromethoxy)phenyl)-7-oxa-1,3-diazaspiro[4.4]nonan-2-one]
12 | – | < 1 | O=C1N(c2ccc(Cl)cc2)C2(COC2)C(O)(c2cccc(OC(F)F)c2)N1c1ccc(Cl)cc1 (stereo not shown) [Compound 272, 5,7-bis(4-chlorophenyl)-8-(3-(difluoromethoxy)phenyl)-8-hydroxy-2-oxa-5,7-diazaspiro[3.4]octan-6-one]
13 | < 1 | – | CC[C@@H]1N(c2ccc(Br)cc2)C(=O)N(c2ccc(Br)cc2)C1(O)c1cccc(C(F)(F)F)c1 (stereo partly drawn) [Compound 67-1, (5S)-1,3-bis(4-bromophenyl)-5-ethyl-4-hydroxy-4-(3-(trifluoromethyl)phenyl)imidazolidin-2-one]
14 | – | < 1 | N#Cc1cccc(C2(O)N(c3ccc(C(F)(F)F)cc3)C(=O)N(c3ccc(C(F)(F)F)cc3)C23COC3)c1 (stereo not shown) [Compound 303, 3-(8-hydroxy-6-oxo-5,7-bis(4-(trifluoromethyl)phenyl)-2-oxa-5,7-diazaspiro[3.4]octan-8-yl)benzonitrile]
15 | – | < 1 | Cc1ccc(N2C(=O)N(c3ccc(C)cc3)C(O)(c3cccc(C#N)c3)C23COC3)cc1 (stereo not shown) [Compound 287, 3-(8-hydroxy-6-oxo-5,7-di-p-tolyl-2-oxa-5,7-diazaspiro[3.4]octan-8-yl)benzonitrile]
16 | < 1 | – | CCC1N(c2ccc(Cl)cc2)C(=O)N(c2ccc(Cl)cc2)C1(O)c1cccc(OC(F)F)c1 (stereo not shown) [Compound 118, 1,3-bis(4-chlorophenyl)-4-(3-(difluoromethoxy)phenyl)-5-ethyl-4-hydroxyimidazolidin-2-one]
17 | < 1 | – | C[C@H]1N(c2ccc(F)cc2)C(=O)N(c2ccc(F)cc2)C1(O)c1cccc(OC(F)(F)F)c1 (stereo partly drawn) [Compound 130-2, (5R)-1,3-bis(4-fluorophenyl)-4-hydroxy-5-methyl-4-(3-(trifluoromethoxy)phenyl)imidazolidin-2-one]
18 | < 1 | – | COCc1c(-c2cccc(C(F)(F)F)c2)n(-c2ccc(Cl)cc2)c(=O)n1-c1ccc(Cl)cc1 [Example 41, 1,3-bis(4-chlorophenyl)-4-(methoxymethyl)-5-(3-(trifluoromethyl)phenyl)-1,3-dihydro-2H-imidazol-2-one]
19 | > 50 | – | O=C1N(c2ccccc2)CC(O)(c2ccccc2)N1c1ccccc1 (stereo not shown) [Example 21, 4-hydroxy-1,3,4-triphenylimidazolidin-2-one]
20 | – | 1 to 10 | COc1ccc(N2C(=O)N(c3ccc(OC)cc3)C(O)(c3cccc(OC(F)(F)F)c3)[C@@H]2C(C)C)cc1 (stereo partly drawn) [Example 329-1, (5S)-4-hydroxy-5-isopropyl-1,3-bis(4-methoxyphenyl)-4-(3-(trifluoromethoxy)phenyl)imidazolidin-2-one]
21 | – | < 1 | N#Cc1ccc(N2C(=O)N(c3ccc(C#N)cc3)C(O)(c3cccc(C#N)c3)C23CCC3)cc1 (stereo not shown) [Compound 294, 4,4′-(8-(3-cyanophenyl)-8-hydroxy-6-oxo-5,7-diazaspiro[3.4]octane-5,7-diyl)dibenzonitrile]
22 | < 1 | – | Cc1ccc(N2C(=O)N(c3ccc(C)cc3)C(O)(c3cccc(OC(F)(F)F)c3)[C@@H]2C(C)C)cc1 (single isomer, unassigned) [Compound 235-1]
23 | > 50 | – | CN(C)c1cccc(C2(O)CN(c3ccc(Br)cc3)C(=O)N2c2ccc(Br)cc2)c1 (stereo not shown) [Compound 125, 1,3-bis(4-bromophenyl)-4-(3-(dimethylamino)phenyl)-4-hydroxyimidazolidin-2-one]
24 | < 1 | – | CC1(C(F)(F)F)N(c2ccc(Cl)cc2)C(=O)N(c2ccc(Cl)cc2)C1(O)c1cccc(C#N)c1 (stereo not shown) [Example 177, 3-(1,3-bis(4-chlorophenyl)-4-hydroxy-5-methyl-2-oxo-5-(trifluoromethyl)imidazolidin-4-yl)benzonitrile]
25 | < 1 | – | N#Cc1cccc(C2(O)[C@@H](C3CC3)N(c3ccc(Cl)cc3)C(=O)N2c2ccc(Cl)cc2)c1 (stereo partly drawn) [Example 187-2, 3-((5R)-1,3-bis(4-chlorophenyl)-5-cyclopropyl-4-hydroxy-2-oxoimidazolidin-4-yl)benzonitrile]
26 | > 50 | – | CCC1(O)CN(c2ccc(Cl)cc2)C(=O)N1c1ccc(Cl)cc1 (stereo not shown) [Example 56, 1,3-bis(4-chlorophenyl)-4-ethyl-4-hydroxyimidazolidin-2-one]
27 | < 1 | – | O=C1N(c2ccc(Cl)cc2)C2(CCC2)C(O)(c2cccc(OC(F)F)c2)N1c1ccc(Cl)cc1 (stereo not shown) [Example 165, 5,7-bis(4-chlorophenyl)-8-(3-(difluoromethoxy)phenyl)-8-hydroxy-5,7-diazaspiro[3.4]octan-6-one]
28 | – | < 1 | COc1ccc(N2C(=O)N(c3ccc(OC)cc3)C(O)(c3cccc(OC(F)(F)F)c3)[C@H]2C(C)C)cc1 (stereo partly drawn) [Example 329-2, (5R)-4-hydroxy-5-isopropyl-1,3-bis(4-methoxyphenyl)-4-(3-(trifluoromethoxy)phenyl)imidazolidin-2-one]
